Molecular target: recombinant CaMKIIδ (Homo sapiens (Human), UniProt Q13557)
Test: CaMKIIδ biochemical assay (HTRF)
Conditions: 10 pM CaMKIIδ, 110 nM calmodulin, 12 μM ATP, 1 hour; read-out: CAMKIID-HTRF-384V2 (IC50 - nM)
Method: CaMKIIδ Biochemical Assay
The biochemical activity of recombinant CaMKIIδ was measured by monitoring the phosphorylation of a target peptide using Homogenous Time Resolved Fluorescence (HTRF) technology from CisBio Bioassays.

Row | Structure (SMILES) | IC50
1 | NC[C@H]1CCCCN1C(=O)c1cc(Cl)nc(-c2cnn3ccc(-c4cccs4)nc23)c1 [Example 111, (R)-(2-(aminomethyl)piperidin-1-yl)(2-chloro-6-(5-(thiophen-2-yl)pyrazolo[1,5-a]pyrimidin-3-yl)pyridin-4-yl)methanone] | 0.05 nM
2 | CCN(CC)[C@@H](C)CNC(=O)c1cc(OC)nc(-c2cnn3ccc(-c4cccs4)nc23)c1 [Example 112, (S)—N-(2-(diethylamino)propyl)-2-methoxy-6-(5-(thiophen-2-yl)pyrazolo[1,5-a]pyrimidin-3-yl)isonicotinamide] | 0.14 nM
3 | NC[C@@H]1CCCCN1C(=O)c1cc(Cl)nc(-c2cnn3ccc(-c4cccs4)nc23)c1 [Example 113, (S)-(2-(aminomethyl)piperidin-1-yl)(2-chloro-6-(5-(thiophen-2-yl)pyrazolo[1,5-a]pyrimidin-3-yl)pyridin-4-yl)methanone] | 41.9 nM
4 | CCN(CC)[C@@H](C)CNC(=O)c1cc(N)nc(-c2cnn3ccc(-c4ccccc4)nc23)c1 [Example 114, (S)-2-amino-N-(2-(diethylamino)propyl)-6-(5-phenylpyrazolo[1,5-a]pyrimidin-3-yl)isonicotinamide] | 0.5 nM
5 | Cc1cc(C(=O)N2CCCC[C@@H]2CN)cc(-c2cnn3ccc(-c4ccccc4)nc23)n1 [Example 115, (R)-(2-(aminomethyl)piperidin-1-yl)(2-methyl-6-(5-phenylpyrazolo[1,5-a]pyrimidin-3-yl)pyridin-4-yl)methanone] | 1.41 nM
6 | NC[C@H]1CCCCN1C(=O)c1cc(-c2cnn3ccc(-c4ccccc4)nc23)nc(C(F)(F)F)c1 [Example 116, (R)-(2-(aminomethyl)piperidin-1-yl)(2-(5-phenylpyrazolo[1,5-a]pyrimidin-3-yl)-6-(trifluoromethyl)pyridin-4-yl)methanone] | 5.89 nM
7 | NC[C@H]1CCCCN1C(=O)c1cc(-c2cnn3ccc(-c4ccccc4)nc23)nc(C2CC2)c1 [Example 117, (R)-(2-(aminomethyl)piperidin-1-yl)(2-cyclopropyl-6-(5-phenylpyrazolo[1,5-a]pyrimidin-3-yl)pyridin-4-yl)methanone] | 8.08 nM
8 | CN(C)c1cc(C(=O)N2CCCC[C@@H]2CN)cc(-c2cnn3ccc(-c4ccccc4)nc23)n1 [Example 118, (R)-(2-(aminomethyl)piperidin-1-yl)(2-(dimethylamino)-6-(5-phenylpyrazolo[1,5-a]pyrimidin-3-yl)pyridin-4-yl)methanone] | 5.29 nM
9 | CCN[C@@H](C)CNC(=O)c1cc(CC)nc(-c2cnn3ccc(-c4ccccc4)nc23)c1 [Example 119, (S)-2-ethyl-N-(2-(ethylamino)propyl)-6-(5-phenylpyrazolo[1,5-a]pyrimidin-3-yl)isonicotinamide] | 71 nM
10 | CCN[C@@H](C)CNC(=O)c1cc(C)nc(-c2cnn3ccc(-c4ccccc4)nc23)c1 [Example 120, (S)—N-(2-(ethylamino)propyl)-2-methyl-6-(5-phenylpyrazolo[1,5-a]pyrimidin-3-yl)isonicotinamide] | 41.8 nM
11 | CCN[C@@H](C)CNC(=O)c1cc(N)nc(-c2cnn3ccc(-c4ccccc4)nc23)c1 [Example 121, (S)-2-amino-N-(2-(ethylamino)propyl)-6-(5-phenylpyrazolo[1,5-a]pyrimidin-3-yl)isonicotinamide] | 15.7 nM
12 | CCN[C@@H](C)CNC(=O)c1cc(-c2cnn3ccc(-c4ccccc4)nc23)nc(C(C)C)c1 [Example 122, (S)—N-(2-(ethylamino)propyl)-2-isopropyl-6-(5-phenylpyrazolo[1,5-a]pyrimidin-3-yl)isonicotinamide] | 4.61 nM
13 | CCN[C@@H](C)CNC(=O)c1cc(-c2cnn3ccc(-c4ccccc4)nc23)nc(C2CC2)c1 [Example 123, (S)-2-cyclopropyl-N-(2-(ethylamino)propyl)-6-(5-phenylpyrazolo[1,5-a]pyrimidin-3-yl)isonicotinamide] | 94.7 nM
14 | CCN[C@@H](C)CNC(=O)c1cc(Cl)nc(-c2cnn3ccc(-c4ccccc4)nc23)c1 [Example 124, (S)-2-chloro-N-(2-(ethylamino)propyl)-6-(5-phenylpyrazolo[1,5-a]pyrimidin-3-yl)isonicotinamide] | 17.1 nM
15 | CN(C)c1cc(C(=O)N2CC[C@H](N)C2)cc(-c2cnn3ccc(-c4ccccc4)nc23)n1 [Example 125, (S)-(3-aminopyrrolidin-1-yl)(2-(dimethylamino)-6-(5-phenylpyrazolo[1,5-a]pyrimidin-3-yl)pyridin-4-yl)methanone] | 267 nM
16 | COc1cc(C(=O)N2CC[C@H](N)C2)cc(-c2cnn3ccc(-c4ccccc4)nc23)n1 [Example 126, (S)-(3-aminopyrrolidin-1-yl)(2-methoxy-6-(5-phenylpyrazolo[1,5-a]pyrimidin-3-yl)pyridin-4-yl)methanone] | 65.6 nM
17 | NC[C@H]1CCCCN1C(=O)c1cc(Cl)nc(-c2cnn3ccc(-c4ccccc4)nc23)c1 [Example 127, (R)-(2-(aminomethyl)piperidin-1-yl)(2-chloro-6-(5-phenylpyrazolo[1,5-a]pyrimidin-3-yl)pyridin-4-yl)methanone] | 0.22 nM

Row | Structure (SMILES) | IC50
18 | Nc1cc(C(=O)N2C3CCNCC2CC3)cc(-c2cnn3ccc(-c4ccccc4)nc23)n1 (stereo not drawn) [Example 128, (2-amino-6-(5-phenylpyrazolo[1,5-a]pyrimidin-3-yl)pyridin-4-yl)(-3,9-diazabicyclo[4.2.1]nonan-9-yl)methanone] | 27.8 nM
19 | Nc1cc(C(=O)N2C3CCNCC2CC3)cc(-c2cnn3ccc(-c4cccs4)nc23)n1 (stereo not drawn) [Example 129, (2-amino-6-(5-(thiophen-2-yl)pyrazolo[1,5-a]pyrimidin-3-yl)pyridin-4-yl)(-3,9-diazabicyclo[4.2.1]nonan-9-yl)methanone] | 1.55 nM
20 | CC(C)(C)c1cc(C(=O)N2CCCC[C@@H]2CN)cc(-c2cnn3ccc(-c4ccccc4)nc23)n1 [Example 130, (R)-(2-(aminomethyl)piperidin-1-yl)(2-(tert-butyl)-6-(5-phenylpyrazolo[1,5-a]pyrimidin-3-yl)pyridin-4-yl)methanone] | 266 nM
21 | Cc1cc(C(=O)N2CCC[C@@H]2CN)cc(-c2cnn3ccc(-c4ccccc4)nc23)n1 [Example 131, (R)-(2-(aminomethyl)pyrrolidin-1-yl)(2-methyl-6-(5-phenylpyrazolo[1,5-a]pyrimidin-3-yl)pyridin-4-yl)methanone] | 56.1 nM
22 | COc1cc(C(=O)N2CCCC[C@@H]2CN)cc(-c2cnn3ccc(-c4ccccc4)nc23)n1 [Example 132, (R)-(2-(aminomethyl)piperidin-1-yl)(2-methoxy-6-(5-phenylpyrazolo[1,5-a]pyrimidin-3-yl)pyridin-4-yl)methanone] | 32.7 nM
23 | NC[C@@H]1CCCCN1C(=O)c1cc(Cl)nc(-c2cnn3ccc(-c4ccccc4)nc23)c1 [Example 133, (S)-(2-(aminomethyl)piperidin-1-yl)(2-chloro-6-(5-phenylpyrazolo[1,5-a]pyrimidin-3-yl)pyridin-4-yl)methanone] | 163 nM
24 | COc1cc(C(=O)N2CCCC[C@H]2CN)cc(-c2cnn3ccc(-c4ccccc4)nc23)n1 [Example 134, (S)-(2-(aminomethyl)piperidin-1-yl)(2-methoxy-6-(5-phenylpyrazolo[1,5-a]pyrimidin-3-yl)pyridin-4-yl)methanone] | 303 nM
25 | CN(C)c1cc(C(=O)N2CCCC[C@H]2CN)cc(-c2cnn3ccc(-c4ccccc4)nc23)n1 [Example 135, (S)-(2-(aminomethyl)piperidin-1-yl)(2-(dimethylamino)-6-(5-phenylpyrazolo[1,5-a]pyrimidin-3-yl)pyridin-4-yl)methanone] | 761 nM
26 | Cc1cnc(-c2cnn3ccc(-c4ccccc4)nc23)cc1C(=O)N1CCCC[C@@H]1CN [Example 136, (R)-(2-(aminomethyl)piperidin-1-yl)(5-methyl-2-(5-phenylpyrazolo[1,5-a]pyrimidin-3-yl)pyridin-4-yl)methanone] | 0.84 nM
27 | NC[C@H]1CCCCN1C(=O)c1cc(-c2cnn3ccc(-c4ccccc4)nc23)ncc1Cl [Example 137, (R)-(2-(aminomethyl)piperidin-1-yl)(5-chloro-2-(5-phenylpyrazolo[1,5-a]pyrimidin-3-yl)pyridin-4-yl)methanone] | 1.82 nM
28 | NC[C@H]1CCCCN1C(=O)c1cc(-c2cnn3ccc(-c4ccccc4)nc23)ncc1N [Example 138, (R)-(5-amino-2-(5-phenylpyrazolo[1,5-a]pyrimidin-3-yl)pyridin-4-yl)(2-(aminomethyl)piperidin-1-yl)methanone] | 0.4 nM
29 | CNc1cnc(-c2cnn3ccc(-c4ccccc4)nc23)cc1C(=O)N1CCCC[C@@H]1CN [Example 139, (R)-(2-(aminomethyl)piperidin-1-yl)(5-(methylamino)-2-(5-phenylpyrazolo[1,5-a]pyrimidin-3-yl)pyridin-4-yl)methanone] | 0.87 nM
30 | Cc1cnc(-c2cnn3ccc(-c4ccccc4)nc23)cc1C(=O)N1CCCC[C@@H]1[C@@H](C)N [Example 140, ((R)-2-((R)-1-aminoethyl)piperidin-1-yl)(5-methyl-2-(5-phenylpyrazolo[1,5-a]pyrimidin-3-yl)pyridin-4-yl)methanone] | 1.91 nM
31 | CCN(CC)[C@@H](C)CNC(=O)c1cc(-c2cnn3ccc(-c4cccs4)nc23)nc(N2CC(C#N)C2)c1 [Example 142, (S)-2-(3-cyanoazetidin-1-yl)-N-(2-(diethylamino)propyl)-6-(5-(thiophen-2-yl)pyrazolo[1,5-a]pyrimidin-3-yl)isonicotinamide] | 0.1 nM
32 | CCOC1CN(c2cc(C(=O)NC[C@H](C)N(CC)CC)cc(-c3cnn4ccc(-c5cccs5)nc34)n2)C1 [Example 143, (S)—N-(2-(diethylamino)propyl)-2-(3-ethoxyazetidin-1-yl)-6-(5-(thiophen-2-yl)pyrazolo[1,5-a]pyrimidin-3-yl)isonicotinamide] | 0.17 nM
33 | CCN(CC)[C@@H](C)CNC(=O)c1cc(-c2cnn3ccc(-c4cccs4)nc23)nc(N2CC(OC(F)F)C2)c1 [Example 144, (S)—N-(2-(diethylamino)propyl)-2-(3-(difluoromethoxy)azetidin-1-yl)-6-(5-(thiophen-2-yl)pyrazolo[1,5-a]pyrimidin-3-yl)isonicotinamide] | 0.18 nM

From patent US10100058B2, “Fused heterocyclic compounds as CaM kinase inhibitors” (Gilead Sciences, Inc., priority 2016, dated 2018)
